SMILES strings stand for the structures.

Data set [1] in a line: body weight change and deaths in the mouse model of adenomatous polyposis. Type of data set: in vivo. Particulars: COX 125 ppm in feed ad libitum, HDAI 10 mg/kg i.v. 3x/wk for three weeks. As for the experimental part: 5-methyl-2-(2′-chloro-6′-fluoro-anilino)-phenyl acetic acid (alternatively named [2-(2′-chloro-6′-fluoro-phenylamino)-5-methyl-phenyl]acetic acid; for the preparation see Example 1) (“COX”) and N-hydroxy-3-[4-[[(2-hydroxyethyl)[2-(1H-indol-3-yl)ethyl]-amino]methyl]phenyl]-2E-2-propenamide (alternatively named (E)-N-Hydroxy-3-[4-({(2-hydroxy-ethyl)-[2-(1H-indol-3-yl)-ethyl]-amino}-methyl)-phenyl]-acrylamide; for the preparation see Example 3) (“HDAI”) are tested as single agents and together as combination therapy in a mouse model of adenomatous polyposis for the prevention and treatment of intestinal polyps. HDAI is administered intravenously to the mice at 10 mg/kg in a 5% (w/v) dextrose in water solution, q.d., 3 times per week for three weeks. COX is administered as a dietary admixture at a concentration of 125 ppm. % T/C is the quotient of the mean number of polyps in the treated mice divided by the mean number of polyps in the control mice times 100. The following results of duplicate experiments are observed: […]

A further data set relates to intestinal polyps. In words: mouse model of adenomatous polyposis, prevention and treatment of intestinal polyps. Type of data set: in vivo. Particulars: COX 125 ppm in feed ad libitum, HDAI 10 mg/kg i.v. 3x/wk for three weeks. The protocol:
5-methyl-2-(2′-chloro-6′-fluoro-anilino)-phenyl acetic acid (alternatively named [2-(2′-chloro-6′-fluoro-phenylamino)-5-methyl-phenyl]acetic acid; for the preparation see Example 1) (“COX”) and N-hydroxy-3-[4-[[(2-hydroxyethyl)[2-(1H-indol-3-yl)ethyl]-amino]methyl]phenyl]-2E-2-propenamide (alternatively named (E)-N-Hydroxy-3-[4-({(2-hydroxy-ethyl)-[2-(1H-indol-3-yl)-ethyl]-amino}-methyl)-phenyl]-acrylamide; for the preparation see Example 3) (“HDAI”) are tested as single agents and together as combination therapy in a mouse model of adenomatous polyposis for the prevention and treatment of intestinal polyps. HDAI is administered intravenously to the mice at 10 mg/kg in a 5% (w/v) dextrose in water solution, q.d., 3 times per week for three weeks. COX is administered as a dietary admixture at a concentration of 125 ppm. % T/C is the quotient of the mean number of polyps in the treated mice divided by the mean number of polyps in the control mice times 100. The following results of duplicate experiments are observed:
Both agents alone cause a statistically significant reduction in the number of newly formed intestinal polyps. […] Statistical evaluations are performed using a one tailed Student t-test and all p values are less than 0.01.

[2] abbreviates: second of duplicate experiments.

`O=C(/C=C/c1ccc(CN(CCO)CCc2c[nH]c3ccccc23)cc1)NO` [HDAI, N-hydroxy-3-[4-[[(2-hydroxyethyl)[2-(1H-indol-3-yl)ethyl]-amino]methyl]phenyl]-2E-2-propenamide]: in data set [1] (first of duplicate experiments), the “% Body Wt. Change” value is reported as “+3.5 ± 0.1%” and the Dead/Total animals was 0/7. Moreover, in data set [1] (setting [2]), the “% Body Wt. Change” value is reported as “+9.6 ± 0.1%” and the Dead/Total animals is reported as 0/7. Also, in the data set on intestinal polyps (first of duplicate experiments), the “% T/C (mean number of polyps treated / control x 100)” value is reported as 52% and the “Mean Intestinal Polyp Count (# ± SEM)” value is 12 ± 0.57 #. For the same compound, in the data set on intestinal polyps (setting [2]), the “% T/C (mean number of polyps treated / control x 100)” value is 57% and the “Mean Intestinal Polyp Count (# ± SEM)” value is 15 ± 0.3 #.
As for `Cc1ccc(Nc2c(F)cccc2Cl)c(CC(=O)O)c1` [COX, 5-methyl-2-(2′-chloro-6′-fluoro-anilino)-phenyl acetic acid], the “% Body Wt. Change” value in data set [1] (first of duplicate experiments) is recorded as “+10 ± 0.1%”; in data set [1] (setting [2]), “+8.1 ± 0.2%”. The Dead/Total animals in data set [1] (first of duplicate experiments) and in data set [1] (setting [2]) was 0/7 throughout. The “% T/C (mean number of polyps treated / control x 100)” value was 60% with intestinal polyps (first of duplicate experiments) and 46% with intestinal polyps (setting [2]). For the same compound, the figures for the “Mean Intestinal Polyp Count (# ± SEM)” value in the data set on intestinal polyps (first of duplicate experiments) and in the data set on intestinal polyps (setting [2]) were 14 ± 0.7 # and 12 ± 0.3 #, respectively.
